Series [1] relates to urease operon (ureR). Also on record: method as in PMID 31921010. As to conditions: cited from earlier work.
The subject of series [2] is Helicobacter pylori urease. Details: method as in earlier work. As to conditions: cited from earlier work.
Series [3] has as its system P. mirabilis urease. Also on record: method as in PMID 8494373. The conditions noted are these: limited concentrations tested; cited from earlier work.
The subject of series [4] is P. mirabilis. Briefly: In vitro glass “bladder” model of catheter encrustation. It counts as cell-based, Proteus mirabilis. As to the method:
A Foley catheter is inserted aseptically into the vessel through an opening at the base, the balloon is inflated, and the catheter is attached to a catheter drainage bag (Fig. 7A). The “bladder” is supplied with sterile AUM at a physiologically relevant flow rate via peristaltic pump from a media reservoir, the “kidney” (Fig. 7A). An initial bacterial inoculum of 10^8 CFU of P. mirabilis was added to the AUM in the “bladder” inner chamber to model robust bacteriuria, followed by initiation of flow (Fig. 7B). The performance of urease-dampening metabolites was evaluated as a reduction in 1) effluent AUM pH over the 24 h study period, and 2) crystalline biofilm formation and ion precipitation on catheter segments 24 h post inoculation. Urease-dampening metabolites and AHA were introduced into the system by direct dissolution into the AUM reservoirs. For each study, both positive (untreated P. mirabilis) and negative (untreated P. mirabilis urease negative mutant) controls were included. Effluent urine samples were collected at 0, 3, 6, 9, 12 and 24 h post inoculation. This preclinical model of catheter encrustation was modified to assess whether prophylactic administration of urease-dampening metabolites increases efficacy of antimicrobials against catheter biofilms, as outlined in Fig. 9A. Each experiment was performed in triplicate. Full details of experimental set up, sample collection, and processing are provided below and in Supplementary Materials.
A previously described glass “bladder” model was used, in which a 500 mL water-jacketed glass vessel is maintained at 37 °C via a circulating water bath, a Foley catheter is inserted and inflated, and artificial urine medium (AUM) is supplied into the “bladder” at a constant flow rate (0.75-1.0 mL/min) through a peristaltic pump[55],[56]. For consistency with the in vitro urease activity assays and the physiologic range of urea in healthy human urine, AUM was supplemented with 500 mM urea[57]. Urease-dampening metabolites of interest were directly dissolved in AUM 500 mM urea, adjusted to a pH of 5.8, and filter sterilized via a 0.2μm filter. “Bladders” were inoculated with 10^8 CFUs of P. mirabilis. Samples were collected from the catheter port at 0, 3, 6, 9, 12, and 24 hours to monitor pH and bacterial CFUs. Catheters segments were processed for CFUs, crystal violet staining of biofilm biomass, and ion composition at 24 h. Full details are provided in the Supplementary Methods.
236 and the segments were air dried for 15 min. Catheter segments were stained with 1.0 ml 0.1%
237 crystal violet for 10 min, washed by gentle dunking in 1X phosphate-buffered saline (PBS) to
238 remove excess stain, and solubilized in a microcentrifuge tube containing 750μL of 1% SDS
239 95% ethanol and vortexed for 5 minutes. Crystal violet absorbance (OD570) was measured in a
240 BioTek Synergy H1 microplate reader and blanked using cell-free control wells for each biofilm
243 Catheter segment biofilm viability. Catheter segments were washed by gentle dunking in 1X
244 phosphate-buffered saline (PBS) to remove any remaining planktonic bacteria and residual AUM
245 from the catheter lumen. Catheter segments were then placed in a microcentrifuge tube
246 containing 1mL of 1X PBS and vortexed for 5 minutes to solubilize the biofilm. Samples
247 underwent serial 10-fold dilutions and were spiral plated (Eddy Jet 2; Neutec Group Inc.,
248 Farmingdale, NY) onto low-salt LB agar for enumeration of CFU using a ProtoCOL 3 automated
249 colony counter (Synbiosis).
251 Catheter segment elemental composition. Catheter segments were placed in a microcentrifuge

Series [5] concerns human gastric cancer cells (SGC-7901). The conditions noted are these: cited from earlier work.
The test system of series [6] is lymphoblasts (K562). The conditions noted are these: cited from earlier work.
Series [7] has as its system epithelial-like hepatocellular carcinoma cells (HepG2). As to conditions: cited from earlier work.
The conditions of series [8]: cited from earlier work.
[9] abbreviates: 24 h, alone: 5 mM AHA, 25 mM histamine, 25 mM 4-imidazole acetate.

With 2-Hydroxy-4-methoxybenzaldehyde, the urease operon expression result in series [1] is reported as “reduce urease operon expression”.
Regarding `COc1ccc2[nH]c([S+]([O-])Cc3ncc(C)c(OC)c3C)nc2c1` (centres unmarked) [Omeprazole], in series [2], the “Helicobacter pylori urease activity” value is recorded as “inhibit”. Moreover, the “P. mirabilis urease activity” value in series [3] is reported as “did not inhibit”.
For `CC(=O)NO` [AHA, acetohydroxamic acid, reference compound], the crystalline biofilm formation result in series [4] (24 h, alone: 1.25 mM AHA, 12.5 mM histamine, 12.5 mM 4-imidazole acetate) is reported as “no impact on crystalline biofilm formation”. For the same compound, the “Magnesium and phosphorus precipitation on catheter segments (ICP-OES)” value in series [4] (setting [9]) is given as “reduced, although the reduction was not statistically significant”. In series [4] (setting [9]), the “catheter biofilm biomass (crystal violet) vs untreated P. mirabilis” value is on record as “significantly reduced biofilm biomass”. The “pH of AUM collected from “bladders” over 24 h” value in series [4] (alone, lower concentrations) was “failed to restrict pH”; in series [4] (alone: 5 mM AHA, 25 mM histamine, 25 mM 4-imidazole acetate, nucleation point ~ pH 8), “never surpassed the nucleation point”. Besides, the “P. mirabilis CFUs in effluent over time” value in series [4] (tested individually) is listed as “no meaningful differences between CFUs over time”. Besides, the “urease-mediated pH increase” value in series [4] (tested individually, dose response) is given as “perturbed urease-mediated pH increase in a dose-dependent manner”. Besides, the “decrease in viability of SGC-7901” value in series [5] was 60-70%. The “decrease in viability of K562” value in series [6] is on record as 60-70%. In addition, the “decrease in viability of HepG2” value in series [7] is 60-70%. In addition, the “efficacy in clinical trials” value in series [8] is recorded as “showed efficacy in preventing urinary stone formation”. Further, the severe side effects result in series [8] (in vivo) was “teratogenesis, hemolytic anemia, psychoneurological and muscular symptoms”.
For the compound `Cc1c(OCC(F)(F)F)ccnc1C[S+]([O-])c1nc2ccccc2[nH]1` (centres unmarked) [lansoprazole], in series [2], the “Helicobacter pylori urease activity” value is reported as “inhibit”. Further, the “P. mirabilis urease activity” value in series [3] is “did not inhibit”.

Source of the values: article PMC12583827, “Harnessing microbial-derived metabolites in the urinary tract to prevent infection induced catheter encrustation” (Nature Communications, 2025).
